For eight compounds, TGI results are on record in PubChem BioAssay (NCI).

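Dose response: 5 concentrations. Exposure: 48 h. Format: 96-well plates. Endpoint: linear interpolation; highest concentration if not reached. TGI: concentration producing complete growth inhibition.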

Some test systems named below: A498 renal; A549 NSCLC; DU-145 prostate; EKVX NSCLC; HCC-2998 colon; HL-60(TB) leukemia; HT29 colon; K-562 leukemia; M14 melanoma; MCF7 breast; MDA-MB-231 breast; MDA-MB-435; MOLT-4 leukemia; NCI-H23 lung; NCI/ADR-RES ovarian; SF-295 CNS; SK-MEL-2 melanoma; SK-MEL-28 melanoma; SNB-19 CNS; TK-10 renal.
Common to all, as to experiment: NCI tumour cell line growth inhibition, 48 h

As to `O=C1CSC(/C=C/c2ccccc2)N1c1ccc(-n2c(-c3ccccc3)nc3ccccc3c2=O)cc1` (stereo unspecified), the TGI with A498 renal, in the experiment on A549 NSCLC, in the experiment with DU-145 prostate, with EKVX NSCLC, in the experiment on HCC-2998 colon and with HL-60(TB) leukemia was over 100 µM in each case. Moreover, the TGI in the experiment with HT29 colon, in the experiment with K-562 leukemia, in the experiment with M14 melanoma, with MCF7 breast, in the experiment on MDA-MB-231 breast and with MDA-MB-435 was over 100 µM in each case. Also, the TGI in the experiment on MOLT-4 leukemia, with NCI-H23 lung, with NCI/ADR-RES ovarian, in the experiment with SF-295 CNS, in the experiment on SK-MEL-2 melanoma and in the experiment on SK-MEL-28 melanoma was over 100 µM throughout. The TGI in the experiment on SNB-19 CNS and in the experiment on TK-10 renal was over 100 µM in each case.
Consider `Cc1cc(C)c2c(c1)C(=O)C1(C2)Cc2c(ccc(C)c2C)C1=O` (stereo unspecified), for which the TGI in the experiment on A498 renal, in the experiment with A549 NSCLC, with DU-145 prostate, in the experiment with EKVX NSCLC, in the experiment with HCC-2998 colon and in the experiment on HL-60(TB) leukemia was over 100 µM in each case. The TGI in the experiment with K-562 leukemia, in the experiment with M14 melanoma, with MCF7 breast, in the experiment with MDA-MB-231 breast, in the experiment on MDA-MB-435 and in the experiment with MOLT-4 leukemia was over 100 µM throughout. The TGI in the experiment on NCI/ADR-RES ovarian, with SF-295 CNS, in the experiment on SK-MEL-2 melanoma, in the experiment on SK-MEL-28 melanoma, with SNB-19 CNS and in the experiment with TK-10 renal was over 100 µM each time.
Regarding `CC1CC(NN(C)C)C2(C(N)=O)C(N)=NC(=O)C12C#N` (stereo unspecified), the TGI in the experiment with A498 renal, with A549 NSCLC, with DU-145 prostate, with EKVX NSCLC, with HCC-2998 colon and in the experiment on HT29 colon was over 100 µM in each case. Moreover, the TGI in the experiment with K-562 leukemia, with M14 melanoma, in the experiment on MCF7 breast, in the experiment with MDA-MB-231 breast, with MDA-MB-435 and in the experiment on MOLT-4 leukemia was over 100 µM each time. For the same compound, the TGI in the experiment on NCI-H23 lung, in the experiment on NCI/ADR-RES ovarian, in the experiment on SF-295 CNS, in the experiment on SK-MEL-2 melanoma, with SK-MEL-28 melanoma and in the experiment with SNB-19 CNS was over 100 µM in each case. The compound further had a TGI in the experiment on TK-10 renal of over 100 µM.
Consider `CCOc1ccc2c(c1)NC(=O)C(C1OC(c3ccccc3)=CC1=O)S2` (stereo unspecified), for which the TGI with A498 renal was over 100 µM; in the experiment with A549 NSCLC it was 46.8 µM; in the experiment with DU-145 prostate, over 100 µM; with EKVX NSCLC, 62.3 µM; in the experiment on HCC-2998 colon, 37.7 µM; with HL-60(TB) leukemia, over 100 µM. Further, the TGI in the experiment on HT29 colon is 39.6 µM; with K-562 leukemia, 68.7 µM; with M14 melanoma it was over 100 µM; in the experiment with MCF7 breast it was 30.4 µM; with MDA-MB-231 breast, 60.5 µM; with MDA-MB-435, 44.4 µM. The TGI is 94.2 µM in the experiment on NCI-H23 lung; 67.1 µM in the experiment on NCI/ADR-RES ovarian; 83.5 µM with SF-295 CNS; over 100 µM in the experiment with SK-MEL-2 melanoma; 68.8 µM with SK-MEL-28 melanoma; over 100 µM in the experiment with SNB-19 CNS. In the experiment with TK-10 renal, this compound came in with a TGI of over 100 µM.
As for `c1ccc2c3nnc(c2c1)SCCSCCCSCCS3`, the TGI with A498 renal is 92.6 µM; in the experiment on A549 NSCLC it was over 100 µM; in the experiment with DU-145 prostate, over 100 µM; in the experiment with EKVX NSCLC it was over 100 µM; in the experiment on HCC-2998 colon, over 100 µM; in the experiment on HL-60(TB) leukemia, over 100 µM. In addition, the TGI was over 100 µM in the experiment with HT29 colon; over 100 µM with K-562 leukemia; over 100 µM in the experiment with M14 melanoma; over 100 µM in the experiment on MCF7 breast; 86.1 µM with MDA-MB-231 breast; over 100 µM in the experiment with MDA-MB-435. In addition, the TGI was over 100 µM in the experiment on NCI-H23 lung; over 100 µM with NCI/ADR-RES ovarian; over 100 µM with SF-295 CNS; over 100 µM with SK-MEL-2 melanoma; over 100 µM in the experiment with SK-MEL-28 melanoma; 76 µM in the experiment on SNB-19 CNS. This compound gave a TGI in the experiment on TK-10 renal of over 100 µM.
Take `CNC(=O)OCCN1c2ccccc2Sc2ccccc21`: the TGI in the experiment on A498 renal, in the experiment with A549 NSCLC, in the experiment on DU-145 prostate, with EKVX NSCLC, in the experiment on HCC-2998 colon and in the experiment on HL-60(TB) leukemia was over 100 µM in each case. Also, the TGI was over 100 µM in the experiment on HT29 colon; over 100 µM in the experiment with K-562 leukemia; over 100 µM in the experiment on M14 melanoma; over 100 µM with MCF7 breast; 89.5 µM in the experiment on MDA-MB-231 breast; over 100 µM in the experiment with MDA-MB-435. For the same compound, the TGI with MOLT-4 leukemia, with NCI-H23 lung, in the experiment on NCI/ADR-RES ovarian, in the experiment on SF-295 CNS, with SK-MEL-28 melanoma and in the experiment on SNB-19 CNS was over 100 µM each time. This compound also had a TGI in the experiment with TK-10 renal of over 100 µM.
On to `CC[N+](CC)(CC)/C(=N/S(=O)(=O)c1cc(C)c(Cl)cc1S)[N-]S(=O)(=O)c1ccc(Cl)cc1`, for which the TGI with A498 renal, in the experiment with DU-145 prostate, in the experiment on EKVX NSCLC, in the experiment with HCC-2998 colon, in the experiment on HL-60(TB) leukemia and with HT29 colon was over 100 µM in each case. Besides, the TGI with K-562 leukemia, in the experiment on M14 melanoma, in the experiment with MCF7 breast, with MDA-MB-231 breast, with MDA-MB-435 and with MOLT-4 leukemia was over 100 µM in each case. The TGI in the experiment with NCI-H23 lung, in the experiment on NCI/ADR-RES ovarian, in the experiment on SF-295 CNS, in the experiment with SK-MEL-2 melanoma, with SK-MEL-28 melanoma and in the experiment with TK-10 renal was over 100 µM in each case.
As for `COC(=O)CCc1ccc2c(c1)CC1(C2)Cc2ccc3c(c2C1)CCC3` (stereo unspecified), the TGI in the experiment with A498 renal, with A549 NSCLC, with DU-145 prostate, in the experiment on EKVX NSCLC, in the experiment on HCC-2998 colon and in the experiment with HL-60(TB) leukemia was over 100 µM in each case. Also, the TGI in the experiment on HT29 colon, with K-562 leukemia, with M14 melanoma, with MCF7 breast, in the experiment with MDA-MB-231 breast and in the experiment on MDA-MB-435 was over 100 µM in each case. Further, the TGI with MOLT-4 leukemia, with NCI-H23 lung, with NCI/ADR-RES ovarian, with SF-295 CNS, with SK-MEL-28 melanoma and with SNB-19 CNS was over 100 µM throughout. For the same compound, the TGI with TK-10 renal was over 100 µM.
